Where “and” joins values, the source holds several entries; their conditions need not be identical. Equal values may be shown once. Inconclusive results and toxic doses are left out. Rule for the calls: active = survival T/C of 150% or more; inactive = T/C below 125% in these data.
Tested on: P388 leukemia ip, CD2F1 mice, survival T/C
Assay: NCI In Vivo Anticancer Drug Screen. Data for tumor model P388 Leukemia (intraperitoneal) in CD2F1 (CDF1) mice
Conditions: endpoint: median survival time, higher = longer survival
Procedure, shortened: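 Mice carrying the transplanted tumor received test compound or vehicle. Survival was recorded in each group, and the value is the treated-group measurement divided by that of the vehicle-treated control group.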

[1] = dose: 50.0 mg/kg/injection, schedule: Q01DX009 (ip), vehicle: saline
[2] = dose: 100.0 mg/kg/injection, schedule: Q01DX009 (ip), vehicle: saline
[3] = dose: 200.0 mg/kg/injection, schedule: Q01DX009 (ip), vehicle: saline
[4] = dose: 100.0 mg/kg/injection, schedule: Q01DX009 (ip), vehicle: saline with Tween-80
[5] = dose: 200.0 mg/kg/injection, schedule: Q01DX009 (ip), vehicle: saline with Tween-80
[6] = dose: 6.25 mg/kg/injection, schedule: Q01DX005 (ip), vehicle: Klucel (hydroxypropylcellulose) (HPC)
[7] = dose: 12.5 mg/kg/injection, schedule: Q01DX005 (ip), vehicle: Klucel (hydroxypropylcellulose) (HPC)
[8] = dose: 50.0 mg/kg/injection, schedule: Q01DX005 (ip), vehicle: Klucel (hydroxypropylcellulose) (HPC)
[9] = dose: 100.0 mg/kg/injection, schedule: Q01DX005 (ip), vehicle: Klucel (hydroxypropylcellulose) (HPC)
[10] = dose: 50.0 mg/kg/injection, schedule: Q01DX005 (ip), vehicle: saline with Tween-80
[11] = dose: 100.0 mg/kg/injection, schedule: Q01DX005 (ip), vehicle: saline with Tween-80
[12] = dose: 50.0 mg/kg/injection, schedule: Q01DX009 (ip), vehicle: saline with Tween-80

Measured: T/C

CC1(C)C[C@@]2(F)C(=O)NC(=O)N[C@@H]12
inactive: dose: 12.5 mg/kg/injection, schedule: Q01DX001 (ip), vehicle: Klucel (hydroxypropylcellulose) (HPC) 103 % of control | dose: 25.0 mg/kg/injection, schedule: Q01DX001 (ip), vehicle: Klucel (hydroxypropylcellulose) (HPC) 106 % of control | dose: 50.0 mg/kg/injection, schedule: Q01DX001 (ip), vehicle: Klucel (hydroxypropylcellulose) (HPC) 99 % of control

CCCCCN(C)C12CN3CN(CN(C3)C1)C2
inactive: [1] 103 % of control | [2] 103 % of control | [3] 99 % of control

Cc1cc(C)nc(NS(=O)(=O)c2ccc(N=NC3=C(O)C(c4ccccc4)N(c4ccccc4)C3=O)cc2)n1 (configuration not stated)
inactive: dose: 60.0 mg/kg/injection, schedule: Q01DX005 (ip), vehicle: saline 93 % of control | dose: 120.0 mg/kg/injection, schedule: Q01DX005 (ip), vehicle: saline 86 % of control

CCOC(=O)c1ccc(NC(=S)Nc2ccc(C(=O)OCC)cc2)cc1
inactive: [4] 90 % of control | [5] 90 % of control | dose: 400.0 mg/kg/injection, schedule: Q01DX009 (ip), vehicle: saline with Tween-80 90 % of control

COc1ccc2c(c1)CCC1C2CCC2(C)C1CCC2(C)N(C)C (configuration not stated)
inactive: [6] 102 % of control | [7] 102 % of control

CCCCCCC(O)CCCCCCCCCCC(=O)O (configuration not stated)
inactive: dose: 100.0 mg/kg/injection, schedule: Q04DX003 (ip), vehicle: saline with Tween-80 109 % of control | dose: 200.0 mg/kg/injection, schedule: Q04DX003 (ip), vehicle: saline with Tween-80 100 % of control | dose: 400.0 mg/kg/injection, schedule: Q04DX003 (ip), vehicle: saline with Tween-80 104 % of control

CCCCCCCCC1SC1CCCCCCCC(=O)OCC1CS1 (configuration not stated)
inactive: dose: 100.0 mg/kg/injection, schedule: Q01DX001 (ip), vehicle: other 100 % of control | dose: 200.0 mg/kg/injection, schedule: Q01DX001 (ip), vehicle: other 100 % of control | dose: 400.0 mg/kg/injection, schedule: Q01DX001 (ip), vehicle: other 100 % of control

CC(NS(=O)(=O)N1CCOC1=O)c1ccccc1 (configuration not stated)
inactive: dose: 60.0 mg/kg/injection, schedule: Q01DX005 (ip), vehicle: Klucel (hydroxypropylcellulose) (HPC) 104 % of control | dose: 120.0 mg/kg/injection, schedule: Q01DX005 (ip), vehicle: Klucel (hydroxypropylcellulose) (HPC) 107 % of control | dose: 240.0 mg/kg/injection, schedule: Q01DX005 (ip), vehicle: Klucel (hydroxypropylcellulose) (HPC) 104 % of control

CSC(SC)=C(C#N)C#N
inactive: dose: 25.0 mg/kg/injection, schedule: Q04DX003 (ip), vehicle: saline 104 % of control | dose: 50.0 mg/kg/injection, schedule: Q04DX003 (ip), vehicle: saline 105 % of control | dose: 100.0 mg/kg/injection, schedule: Q04DX003 (ip), vehicle: saline 108 % of control

COC(=O)C1(C)CCCC2(C)c3cc(OC)ccc3C3(CC12)OCCS3 (configuration not stated)
inactive: dose: 2.5 mg/kg/injection, schedule: Q01DX009 (ip), vehicle: saline with Tween-80 100 % of control | dose: 5.0 mg/kg/injection, schedule: Q01DX009 (ip), vehicle: saline with Tween-80 98 % of control | dose: 10.0 mg/kg/injection, schedule: Q01DX009 (ip), vehicle: saline with Tween-80 92 % of control

O=S(=O)(c1ccc(N=Cc2cccs2)cc1)c1ccc(N=Cc2cccs2)cc1
inactive: [1] 99 % of control | [2] 98 % of control | [3] 91 % of control and 95 % of control

COc1ccc(S(N)(=O)=O)cc1C(=O)NCCN1CCN(c2cccc(C(F)(F)F)c2)CC1
inactive: [8] 99 % of control | [9] 95 % of control

CCCCN(CCCC)CCC(C)(O)c1cccc2ccccc12 (configuration not stated)
inactive: dose: 25.0 mg/kg/injection, schedule: Q01DX005 (ip), vehicle: saline with Tween-80 98 % of control | [10] 108 % of control | [11] 92 % of control

CCOc1cccc2c1C(=O)c1c(OCC)c3c(c(OCC)c1C2=O)CC(O)(C(C)=O)CC3O (configuration not stated)
inactive: dose: 1.56 mg/kg/injection, schedule: Q01DX009 (ip), vehicle: other 99 % of control | dose: 3.13 mg/kg/injection, schedule: Q01DX009 (ip), vehicle: other 102 % of control | dose: 6.25 mg/kg/injection, schedule: Q01DX009 (ip), vehicle: other 93 % of control | dose: 12.5 mg/kg/injection, schedule: Q01DX009 (ip), vehicle: other 96 % of control | dose: 25.0 mg/kg/injection, schedule: Q01DX009 (ip), vehicle: other 90 % of control

O=CC1CCC(c2ccc3ccccc3c2)O1 (configuration not stated)
inactive: dose: 60.0 mg/kg/injection, schedule: Q01DX005 (ip), vehicle: saline with Tween-80 106 % of control | dose: 120.0 mg/kg/injection, schedule: Q01DX005 (ip), vehicle: saline with Tween-80 114 % of control | dose: 240.0 mg/kg/injection, schedule: Q01DX005 (ip), vehicle: saline with Tween-80 114 % of control

CC(C)CCC1(CCBr)C(=O)NC(=Nc2ccccc2)NC1=O (configuration not stated)
inactive: dose: 25.0 mg/kg/injection, schedule: Q01DX009 (ip), vehicle: saline with Tween-80 96 % of control | [12] 98 % of control | [4] 100 % of control | [5] 100 % of control

COC(=O)C1=C(C(=O)OC)P2(c3ccccc3)(c3ccccc3)N(c3ccccc3)C(=Nc3ccccc3)N2C1(c1ccccc1)c1ccccc1
inactive: [8] 94 % of control | [9] 102 % of control and 96 % of control | dose: 200.0 mg/kg/injection, schedule: Q01DX005 (ip), vehicle: Klucel (hydroxypropylcellulose) (HPC) 100 % of control and 89 % of control

CCCN(CCC)C(=O)CN(C=O)c1ncc([N+](=O)[O-])s1
inactive: dose: 25.0 mg/kg/injection, schedule: Q01DX001 (ip), vehicle: saline 104 % of control | dose: 50.0 mg/kg/injection, schedule: Q01DX001 (ip), vehicle: saline 108 % of control | dose: 100.0 mg/kg/injection, schedule: Q01DX001 (ip), vehicle: saline 107 % of control

O=c1[nH]c2c(cnn2-c2ccc(Cl)cc2)c(=O)n1-c1cccc(Cl)c1
inactive: dose: 12.5 mg/kg/injection, schedule: Q01DX009 (ip), vehicle: Klucel (hydroxypropylcellulose) (HPC) 88 % of control | dose: 25.0 mg/kg/injection, schedule: Q01DX009 (ip), vehicle: Klucel (hydroxypropylcellulose) (HPC) 94 % of control | dose: 50.0 mg/kg/injection, schedule: Q01DX009 (ip), vehicle: Klucel (hydroxypropylcellulose) (HPC) 100 % of control

Nc1nc(Cl)c2nnn(C3CC(O)C(CO)C3)c2n1 (configuration not stated)
inactive: [6] 116 % of control | [7] 112 % of control | dose: 25.0 mg/kg/injection, schedule: Q01DX005 (ip), vehicle: Klucel (hydroxypropylcellulose) (HPC) 119 % of control | [8] 110 % of control

CC(C)(C)C1CCC(=NSC(c2ccccc2)(c2ccccc2)c2ccccc2)CC1 (configuration not stated)
inactive: dose: 100.0 mg/kg/injection, schedule: Q04DX002 (ip), vehicle: saline with Tween-80 95 % of control | dose: 200.0 mg/kg/injection, schedule: Q04DX002 (ip), vehicle: saline with Tween-80 87 % of control | dose: 400.0 mg/kg/injection, schedule: Q04DX002 (ip), vehicle: saline with Tween-80 89 % of control

CN1C(c2ccncc2)=NCC12CCCCC2
inactive: dose: 6.25 mg/kg/injection, schedule: Q01DX005 (ip), vehicle: saline 97 % of control | dose: 12.5 mg/kg/injection, schedule: Q01DX005 (ip), vehicle: saline 100 % of control | dose: 12.5 mg/kg/injection, schedule: Q04DX002 (ip), vehicle: saline 106 % of control | dose: 25.0 mg/kg/injection, schedule: Q01DX005 (ip), vehicle: saline 95 % of control | dose: 25.0 mg/kg/injection, schedule: Q04DX002 (ip), vehicle: saline 106 % of control

O=C(CCCN1CCC2(CC1)C(=O)NCN2c1ccc(F)cc1)c1ccc(F)cc1
inactive: [10] 103 % of control | [11] 95 % of control | dose: 200.0 mg/kg/injection, schedule: Q01DX005 (ip), vehicle: saline with Tween-80 94 % of control

O=c1oc2cc(O)ccc2c2oc3ccccc3c12
inactive: dose: 6.2 mg/kg/injection, schedule: Q01DX007 (ip), vehicle: carboxymethylcellulose (CMC) 91 % of control | dose: 12.5 mg/kg/injection, schedule: Q01DX007 (ip), vehicle: carboxymethylcellulose (CMC) 91 % of control | dose: 25.0 mg/kg/injection, schedule: Q01DX007 (ip), vehicle: carboxymethylcellulose (CMC) 100 % of control

O=C(Nc1nc2c(Cl)cccc2s1)C(F)(F)C(F)(F)C(F)(F)F (tested in a mixture with another compound)
inactive: [12] 114 % of control | [4] 101 % of control
